B1: shTERT1: lentiviral shRNA vector targeting TERT (oligos SEQ ID NO: 28/29), used as additional control (nucleic acid)
sense: CCGGAAGTCTGCCGTTGCCCAAGAGCTCGAGCTCTTGGGCAACGGCAGACTTTTTTT
antisense: AATTAAAAAAACTGCATCCAGCCCTATCTGCTCGAGCAGATAGGGCTGGATGCAGTT

Experiments:
Bcl-xL [1] = assay: Bcl-xL protein accumulation by western blot in Spon8 cells; assay type: cell-based, mouse
Procedure: The indicated cell lines were treated with cisplatin at the indicated concentrations on 6-well plates for 72 hours. Cells were lysed with 100 μl of 1× NP40 lysis buffer containing proteinase inhibitors, sheared 10 times with a 28 gauge needle, spun at 16,000×g for 30 minutes, normalized by protein concentration as determined by the Bradford method, and the supernatant boiled for 5 minutes. 20 μl of normalized lysate was resolved by SDS-PAGE and immunoblotting analyzed with indicated antibodies. The following antibodies were used: rabbit anti-CLPTM1L (Novus Biologicals, Littleton, Colo.), mouse anti-Actin (Santa Cruz Biotechnology, Santa Cruz, Calif.), mouse anti-Bcl2 clone 124 (Dako, Carpinteria, Calif.), rabbit anti-Bax #2774 (Cell Signaling, Boston, Mass.), mouse anti-p53 (Ab-1) (Oncogene, San Diego, Calif.), Bcl-xL-rabbit Bcl2L1 (AbCam, Cambridge, Mass.), rabbit anti-H-Ras (Novus Biologicals, Littleton, Colo.), mouse anti-K-Ras(BD Transduction Labs, Franklin, N.J.), anti-Akt(Cell Signaling, Boston, Mass.), antipAKT(Thr308)(Cell Signaling, Boston, Mass.), rabbit anti-PIK3C3 (Cell Signaling, Boston, Mass.), rabbit anti-BAD(AbCam, Cambridge, Mass.). Quantitation of Western analyses of three independent cultures was done using Image J software available online from the National Institutes of Heath at rsbweb.nih.gov on the World Wide Web.

[2] = system: oncogenic K-Ras driven lung tumors; assay: shRNA/K-Ras LSL-G12D/+ mouse model of lung tumorigenesis; assay type: in vivo; conditions: for inhibition of tumor number / inhibition of tumor load: vs scrambled shRNA
Procedure: Mouse experiments were conducted as described by DuPage et al., Nat. Protoc. 4:1064 (2009), with the following modifications. pLKO.1 empty shRNA vector was obtained from Open Biosystems (Foster City, Calif.). Short hairpin inserts were designed to specifically target transcripts. Oligos were ordered from IDT (Coralville, Iowa). Complimentary oligos were heated to 95° C., cooled to room temperature overnight and ligated into digested pLKO.1. Validated constructs used in mouse experiments had the following short-hairpin sequences:
Vectors were modified by replacing the PGK promoter and puromycin resistance orf with the CMV promoter driving expression of CRE-GFP. CMV promoter was sub-cloned from pLenti CMV GFP Puro plasmid #17448 (Addgene) and CRE-GFP was sub-cloned from pCAG:CRE-GFP plasmid #13776 (Addgene). Virus was packaged in 293T cells and functionally titered by infecting 3TZ cells (LSL-LacZ), which express LacZ upon Cre recombinase activation. Mice were anesthetized with 200 μL Avertin ([…]). 10^^4 or 10^^3 active virus particles in 50 μl of phosphate buffered saline was delivered via intratracheal intubation using a 22-gauge IV catheter under general anesthesia to 10 transgenic mice per group (LSL-K-RasG12D (Mouse Models of Human Cancers Consortium (MMHCC) Strain 01XJ6, Jackson Laboratory #008179 (B6), #008180 (129)). […] The thoracic cavity was surgically opened to expose the lungs. The trachea was cannulated with a 22G catheter and lungs were inflated with Tellyesniczky's solution (70% ethanol, 2% formaldehyde, and 5% acetic acid) at 25 cm of pressure by gravity. Lungs were fixed overnight and the solution was exchanged to 70% ethanol the next day. Lungs were photographed, lobes were separated and cleaned. Tumors were counted and measured with digital calipers. A cutoff for visible tumors of 0.2 mm diameter was used. Tumor volume was determined by the following formula: A=4/3πr^3. P-values were determined using a two-tailed Student's T-Test.

3T3 mouse fibroblasts = assay: Transformation assay (morphology, foci) in Ras-transfected 3T3 fibroblasts; assay type: cell-based
Procedure: (§1) NIH3T3 cells acquired within the last 6 months from ATCC were cultured in DMEM 10% FBS to 80% confluence before co-transfecting with the indicated expression and shRNA vectors using Lipofectamine LTX (Invitrogen, Carlsbad, Calif.). Cells were split, allowed to attach and placed on puromycin selection for 3 days or until mock transfected cells were dead. Cells were plated at the indicated densities and fed as needed. For whole plate staining, cells were fixed in cold methanol and stained with crystal violet. For anchorage independent growth, cell were suspended in 0.4% agarose in complete growth media and plate over 0.8% bottom agar at 10,000 cells per well (H-Ras) or 20,000 cells per well (K-Ras) of a six-well tissue culture dish in triplicate. Cells were fed twice a week over 4 weeks in culture, and colonies were stained using cell staining reagent and protocol from Millipore's Cell Transformation Detection Assay. Images of wells were captured and analyzed by Image J software to count colonies. P-values were determined using a two-tailed Student's T-Test.

Bcl-xL [3] = assay: Western blotting for Bcl-xL in NIH3T3 cells with K-RasV12 expression; assay type: cell-based, mouse
Procedure: (§2) The indicated cell lines were treated with cisplatin at the indicated concentrations on 6-well plates for 72 hours. Cells were lysed with 100 μl of 1× NP40 lysis buffer containing proteinase inhibitors, sheared 10 times with a 28 gauge needle, spun at 16,000×g for 30 minutes, normalized by protein concentration as determined by the Bradford method, and the supernatant boiled for 5 minutes. 20 μl of normalized lysate was resolved by SDS-PAGE and immunoblotting analyzed with indicated antibodies. […] Quantitation of Western analyses of three independent cultures was done using Image J software available online from the National Institutes of Heath at rsbweb.nih.gov on the World Wide Web.
(§3) NIH3T3 cells acquired within the last 6 months from ATCC were cultured in DMEM 10% FBS to 80% confluence before co-transfecting with the indicated expression and shRNA vectors using Lipofectamine LTX (Invitrogen, Carlsbad, Calif.). […] Images of wells were captured and analyzed by Image J software to count colonies. P-values were determined using a two-tailed Student's T-Test.

[4] = system: Ras transformed 3T3 cells; assay: Soft agar anchorage independent growth assay; assay type: cell-based, mouse
Procedure: as §1

CLPTM1L transcript = CLPTM1L transcript knockdown by RT-quantitative real-time PCR in Spon8 cells; assay type: cell-based; conditions: Spon8 mouse lung tumor cells; qPCR normalized to beta-Actin
Procedure: Spon8 cells were cultured in RPMI1640 plus 2% FBS (Invitrogen, Carlsbad, Calif.). Cells were transduced with lentiviral short-hairpin RNA (shRNA) vectors based on the pLKO.1 vector and designed to specifically target human CLPTM1L transcript (Sigma, St. Louis). Empty vector or vector knocking down CLPTM1L transcript were first packaged in 293T cells (Orbigen, San Diego, Calif.) by transfection with helper plasmids using Lipofectamine LTX (Invitrogen, Carlsbad, Calif.) and then transduced into Spon 8 cells with 8 μg/ml Polybrene (Sigma, St. Louis, Mo.). Media was replaced 24 hours after transduction, and cells were split 1:4 48 hours after transduction. […]
Patient matched tumor and tumor-adjacent normal RNA samples were obtained from the Tissue Procurement Core at Washington University in St. Louis under protocol approved by the Institutional Review Board at Washington University in St. Louis School of Medicine, Human Research Protection Office. […] Quantitative real-time PCR (qPCR) was conducted using the method as described previously (Chaparro, Wen et al. 2005). […] Quantitative RT-PCR assay was done using the SYBR Green PCR Master Mix (Applied Biosystems, Foster City, Calif.). […] Data were collected and analyzed with Stratagene Mx3000 software. […] Primer set efficiency and linearity was calculated, and normalization was performed in accordance with MIQE guidelines. […]

[5] = system: phosphorylated (T308) Akt; assay: Western blotting for phosphorylated (T308) Akt in NIH3T3 cells with K-RasV12 expression; assay type: cell-based, mouse; conditions: NIH3T3 cells expressing K-RasV12, CLPTM1L stably depleted
Procedure: as §2, §3

[6] = system: Spon8 mouse lung tumor cells; assay: Viability assay (MTS) after cisplatin treatment; assay type: cell-based; conditions: 20 μM cisplatin for 48 hours; compared to vector and sh1; p=9.6E-6
Procedure: Cells stably expressing shRNA vectors as described above were seeded onto 12-well tissue culture dishes at equal densities of approximately 50% in triplicate. After attachment overnight followed by 48 hours of treatment with the indicated concentrations of cisplatin (Sigma, St. Louis, Mo.) dissolved in media. DMSO concentrations in culture media were kept consistent and were at or below 0.08%. Cell viability was measured by Cell Titer 96 Aqueous One Solution Cell Proliferation Assay (MTS) in triplicate. P-values were determined by one-tailed Student's T-Test.

TERT transcript = TERT transcript knockdown in Spon8 cells; assay type: cell-based; conditions: Spon8 mouse lung tumor cells
[7] = high dose group 10^4 functional particles intratracheal, 24 weeks
[8] = low dose group 10^3 particles, 28 weeks post-infection

Molecule | Bcl-xL expression upon CLPTM1L depletion (Bcl-xL [1]) | average tumor load [2, 7] [mm^3] | average tumor number [2, 7] [tumors per mouse] | inhibition of tumor number ([2]; high dose group, p=0.02) [%] | inhibition of tumor load ([2]; high dose group, p=0.03) [%] | average tumor load [2, 8] [mm^3] | average tumor number [2, 8] [tumors] | inhibition of tumor load ([2]; low dose group, p<0.002) [%] | inhibition of tumor number ([2]; low dose group, p<0.004) [%] | transformed phenotype (foci) on stable co-transfection with H-RasV12 or K-RasV12 (3T3 mouse fibroblasts) | morphological changes with shRNA alone compared to vector controls (3T3 mouse fibroblasts; no Ras) | K-RasV12 induced elevation of Bcl-xL (Bcl-xL [3]; NIH3T3 cells expressing K-RasV12, CLPTM1L stably depleted) | Bcl-xL expression with loss of CLPTM1L (Bcl-xL [3]; NIH3T3 mouse fibroblasts, western blotting) | average colonies per well in soft agar ([4]; H-RasV12 expressing 3T3 cells, 10,000 cells per well, control 18 colonies, p<0.03) | inhibition of soft agar colony formation ([4]; K-RasV12 transformed 3T3 cells, 20,000 cells per well, control 56 colonies per well, p<0.02) [%] | knockdown of CLPTM1L at the transcript level (CLPTM1L transcript) [%] | K-RasV12 induced elevation of phospho-Akt [5] | sensitivity to cisplatin-induced killing (MTS viability) [6] | knockdown of TERT at the transcript level (TERT transcript) [%] | tumor number and load compared with scrambled control ([2]; high dose group, p=0.58)
shCLP168m: shRNA targeting CLPTM1L, mature sense strand AACTGCATCCAGCCCTATCTG (SEQ ID NO: 4), pLKO.1 lentiviral vector | concurrently reduced | 3.4 | 46 | 60 | 74 | 0.01 | 0.14 | 98 | 98 | no transformed foci were observed | did not demonstrate morphological changes | ablated | decrease in Bcl-xL expression | one | 47 | 80 | ablated | increased sensitivity to cisplatin |  | 
B1 |  | 10.2 | 122 |  |  | 0.41 | 5 |  |  |  |  |  |  |  |  |  |  |  | 50 | statistically similar to the control group

— patent US9265789B2, “Targeting CLPTM1L by RNA interference for treatment and prevention of cancer” (The Medical College of Wisconsin, Inc., priority 2013, dated 2016)
